Results: paper PMC4685510, “A Cell Biologist’s Field Guide to Aurora Kinase Inhibitors” (Frontiers in Oncology, 2015)

Columns and labels:
Assay in all cases: biochemical
Type in all cases: biochemical
[1] = molecular target: 363 human kinases (including Aurora A/B/C) (Homo sapiens, UniProt P45984); details: JNK2; for remaining activity at 0.1 µM: 100 nM; for remaining activity at 0.1 µM / remaining activity at 0.5 µM: read-out: % Enzyme Activity (relative to DMSO controls)
From the text: (§1) However, the Aurora A/B selectivity ratios derived from our in vitro and in vivo data can be compared to prioritize inhibitors.

[2] = molecular target: 363 human kinases (including Aurora A/B/C) (Homo sapiens, UniProt Q13882); details: BRK, [ATP] 100 µM; for remaining activity at 0.1 µM: 100 nM; for remaining activity at 0.1 µM / remaining activity at 0.5 µM: read-out: % Enzyme Activity (relative to DMSO controls)
363 human kinases (including Aurora A/B/C) (Homo sapiens, UniProt Q13882), sequence (Q13882 whole entry): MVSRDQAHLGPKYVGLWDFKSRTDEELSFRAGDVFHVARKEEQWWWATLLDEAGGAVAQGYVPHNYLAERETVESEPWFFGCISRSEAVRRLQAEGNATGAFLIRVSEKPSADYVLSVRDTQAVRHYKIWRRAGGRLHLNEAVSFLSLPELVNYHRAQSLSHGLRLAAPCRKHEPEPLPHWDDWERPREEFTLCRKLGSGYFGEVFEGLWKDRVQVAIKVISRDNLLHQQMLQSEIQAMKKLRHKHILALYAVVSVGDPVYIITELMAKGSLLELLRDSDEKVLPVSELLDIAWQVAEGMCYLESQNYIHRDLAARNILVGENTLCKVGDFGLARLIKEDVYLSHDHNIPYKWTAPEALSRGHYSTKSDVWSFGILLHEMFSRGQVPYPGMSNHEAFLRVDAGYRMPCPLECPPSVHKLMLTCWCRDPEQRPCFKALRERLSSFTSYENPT
From the text: as §1

[3] = molecular target: 363 human kinases (including Aurora A/B/C) (Homo sapiens, UniProt P36507); details: MEK2; for remaining activity at 0.1 µM: 100 nM; for remaining activity at 0.1 µM / remaining activity at 0.5 µM: read-out: % Enzyme Activity (relative to DMSO controls)
363 human kinases (including Aurora A/B/C) (Homo sapiens, UniProt P36507), sequence (P36507 whole entry): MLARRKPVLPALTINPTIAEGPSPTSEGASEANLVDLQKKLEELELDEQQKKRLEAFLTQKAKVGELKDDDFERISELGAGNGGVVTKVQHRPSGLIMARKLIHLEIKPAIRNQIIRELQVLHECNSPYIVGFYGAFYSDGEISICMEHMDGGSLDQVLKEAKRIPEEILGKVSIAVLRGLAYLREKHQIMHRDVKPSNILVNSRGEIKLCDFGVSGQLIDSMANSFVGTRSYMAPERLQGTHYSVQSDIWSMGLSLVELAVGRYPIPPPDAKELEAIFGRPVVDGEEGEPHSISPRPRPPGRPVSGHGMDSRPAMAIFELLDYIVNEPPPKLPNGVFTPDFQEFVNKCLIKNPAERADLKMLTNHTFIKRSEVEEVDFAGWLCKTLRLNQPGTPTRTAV
From the text: as §1

[4] = molecular target: T1, 363 human kinases (including Aurora A/B/C) (Homo sapiens, UniProt Q15139); details: PKCmu/PRKD1; for remaining activity at 0.1 µM: 100 nM; for remaining activity at 0.1 µM / remaining activity at 0.5 µM: read-out: % Enzyme Activity (relative to DMSO controls)
T1 sequence (Q15139 1-912): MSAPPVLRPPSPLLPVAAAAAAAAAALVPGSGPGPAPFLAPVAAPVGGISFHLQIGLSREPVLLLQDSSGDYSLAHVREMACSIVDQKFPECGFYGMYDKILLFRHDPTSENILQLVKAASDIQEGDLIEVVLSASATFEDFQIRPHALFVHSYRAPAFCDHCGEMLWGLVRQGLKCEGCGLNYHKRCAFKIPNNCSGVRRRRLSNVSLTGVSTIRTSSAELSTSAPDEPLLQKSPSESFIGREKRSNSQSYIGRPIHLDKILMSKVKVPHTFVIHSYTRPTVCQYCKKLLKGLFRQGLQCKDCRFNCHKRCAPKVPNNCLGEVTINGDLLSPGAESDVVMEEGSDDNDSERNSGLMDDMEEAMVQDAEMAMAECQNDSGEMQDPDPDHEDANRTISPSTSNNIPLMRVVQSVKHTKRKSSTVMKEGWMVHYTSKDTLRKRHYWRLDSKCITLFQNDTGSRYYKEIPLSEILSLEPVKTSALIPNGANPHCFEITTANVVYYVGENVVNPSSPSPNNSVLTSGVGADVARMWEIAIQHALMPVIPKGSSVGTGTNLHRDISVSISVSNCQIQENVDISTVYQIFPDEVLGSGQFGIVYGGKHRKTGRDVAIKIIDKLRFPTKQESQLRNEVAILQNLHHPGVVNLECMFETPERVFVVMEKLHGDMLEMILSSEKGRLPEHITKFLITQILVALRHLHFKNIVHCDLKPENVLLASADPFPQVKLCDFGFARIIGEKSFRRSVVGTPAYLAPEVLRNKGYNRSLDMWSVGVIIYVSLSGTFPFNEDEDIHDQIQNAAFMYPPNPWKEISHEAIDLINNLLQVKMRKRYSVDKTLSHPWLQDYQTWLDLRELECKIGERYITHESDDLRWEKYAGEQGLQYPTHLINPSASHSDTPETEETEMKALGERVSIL
From the text: as §1

[5] = molecular target: T2, 363 human kinases (including Aurora A/B/C) (Homo sapiens, UniProt Q9UPZ9); details: LCK2/ICK; for remaining activity at 0.1 µM: 100 nM; for remaining activity at 0.1 µM / remaining activity at 0.5 µM: read-out: % Enzyme Activity (relative to DMSO controls)
T2 sequence (Q9UPZ9 1-632): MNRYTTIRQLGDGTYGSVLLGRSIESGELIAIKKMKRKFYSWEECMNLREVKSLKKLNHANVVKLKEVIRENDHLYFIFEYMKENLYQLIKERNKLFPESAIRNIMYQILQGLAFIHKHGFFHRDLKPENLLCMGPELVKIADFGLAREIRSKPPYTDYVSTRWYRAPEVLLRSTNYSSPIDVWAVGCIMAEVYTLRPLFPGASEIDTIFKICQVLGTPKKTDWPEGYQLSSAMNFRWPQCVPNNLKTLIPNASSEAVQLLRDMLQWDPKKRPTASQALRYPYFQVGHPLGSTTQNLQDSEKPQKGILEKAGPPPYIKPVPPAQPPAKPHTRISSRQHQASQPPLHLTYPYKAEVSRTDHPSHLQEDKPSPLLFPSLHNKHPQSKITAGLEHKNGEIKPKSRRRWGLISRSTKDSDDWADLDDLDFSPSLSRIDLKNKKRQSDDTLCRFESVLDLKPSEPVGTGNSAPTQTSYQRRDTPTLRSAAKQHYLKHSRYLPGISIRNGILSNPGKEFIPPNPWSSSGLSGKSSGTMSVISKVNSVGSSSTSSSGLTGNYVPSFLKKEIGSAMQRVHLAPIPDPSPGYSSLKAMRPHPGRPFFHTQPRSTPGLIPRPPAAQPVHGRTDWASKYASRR
From the text: as §1

[6] = molecular target: T3, 363 human kinases (including Aurora A/B/C) (Homo sapiens, UniProt P51817); details: PRKX; for remaining activity at 0.1 µM: 100 nM; for remaining activity at 0.1 µM / remaining activity at 0.5 µM: read-out: % Enzyme Activity (relative to DMSO controls)
T3 sequence (P51817 1-358): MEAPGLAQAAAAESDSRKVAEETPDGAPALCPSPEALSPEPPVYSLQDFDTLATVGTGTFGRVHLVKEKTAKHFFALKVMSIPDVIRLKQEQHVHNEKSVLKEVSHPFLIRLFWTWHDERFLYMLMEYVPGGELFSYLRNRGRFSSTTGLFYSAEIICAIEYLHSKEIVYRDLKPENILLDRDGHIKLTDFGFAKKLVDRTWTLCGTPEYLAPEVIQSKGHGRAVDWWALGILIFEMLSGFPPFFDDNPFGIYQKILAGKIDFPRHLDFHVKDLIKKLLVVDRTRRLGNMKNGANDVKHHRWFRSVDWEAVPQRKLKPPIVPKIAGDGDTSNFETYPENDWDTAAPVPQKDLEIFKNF
From the text: as §1

363 human kinases (including Aurora A/B/C) (Homo sapiens, UniProt P45984), sequence (P45984 whole entry): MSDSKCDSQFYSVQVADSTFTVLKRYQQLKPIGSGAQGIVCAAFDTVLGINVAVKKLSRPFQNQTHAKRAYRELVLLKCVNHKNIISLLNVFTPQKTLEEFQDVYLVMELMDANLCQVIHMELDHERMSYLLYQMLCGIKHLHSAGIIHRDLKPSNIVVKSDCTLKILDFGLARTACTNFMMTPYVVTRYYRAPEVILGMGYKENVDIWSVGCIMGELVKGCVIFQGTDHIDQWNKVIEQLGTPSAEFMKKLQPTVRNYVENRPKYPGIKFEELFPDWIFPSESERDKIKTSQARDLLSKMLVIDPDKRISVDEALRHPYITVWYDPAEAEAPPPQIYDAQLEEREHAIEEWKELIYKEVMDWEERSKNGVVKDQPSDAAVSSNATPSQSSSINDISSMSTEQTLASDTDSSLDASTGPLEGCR

Structure (SMILES)	remaining activity at 0.1 µM [1]	remaining activity at 0.1 µM [2]	remaining activity at 0.1 µM [3]	remaining activity at 0.1 µM [4]	remaining activity at 0.1 µM [5]	remaining activity at 0.1 µM [6]	remaining activity at 0.5 µM ([1]; 500 nM)	remaining activity at 0.5 µM ([2]; 500 nM)	remaining activity at 0.5 µM ([3]; 500 nM)	remaining activity at 0.5 µM ([4]; 500 nM)	remaining activity at 0.5 µM ([5]; 500 nM)	remaining activity at 0.5 µM ([6]; 500 nM)	% Enzyme Activity (relative to DMSO controls) ([1]; 500 nM)	% Enzyme Activity (relative to DMSO controls) ([2]; 500 nM)	% Enzyme Activity (relative to DMSO controls) ([3]; 500 nM)	% Enzyme Activity (relative to DMSO controls) ([4]; 500 nM)	% Enzyme Activity (relative to DMSO controls) ([5]; 500 nM)	% Enzyme Activity (relative to DMSO controls) ([6]; 500 nM)
CCn1cc(-c2ccnc3[nH]c(-c4cccc(CN(C)C)c4)cc23)c(-c2ccc(NC(=O)N(C)C)cc2)n1 [GSK1070916]	94.7%	76.6%	98.2%	85.4%	97.6%	92.6%	–	–	–	–	–	–	–	–	–	–	–	–
O=C(O)[C@]1(Cc2cccc(Nc3nccs3)n2)CC[C@@H](Oc2cccc(Cl)c2F)CC1 [MK-5108]	95.7%	20.2%	95.6%	108%	99%	99.8%	86.7%	3.11%	90.3%	99%	92.3%	97.6%	–	–	–	–	–	–
O=C(c1cccc(Cl)c1F)N1CCN(Cc2cccc(Nc3nccs3)n2)CC1 [MK-8745]	–	–	–	–	–	–	49.7%	29%	95.2%	98.5%	93%	96.5%	49.53%	29.01%	93.13%	97.14%	91.96%	95.41%
